Experimental data from PubChem BioAssay AID1625 (Sanford-Burnham Center for Chemical Genomics, 2009).
The source made the active and inactive calls.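 The calls were made as follows: active = z-score above 3 at 5 µM with at least 500 cells counted in the well; inconclusive = wells under 500 cells, flagged as cytotoxic or low count; inactive = the rest.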

system: MIN6 insulin promoter-GFP reporter, high-content imaging; assay: up-regulation of insulin promoter-GFP reporter – imaging, high-content screening, mouse beta cells (AID 1625)

Compound | EC50
COc1cccc(/C=N/NC(=O)c2oc3nc(-c4ccccc4)cc(-c4ccco4)c3c2N)c1 | > 16 µM (inactive)
CCOC(=O)/C(C#N)=C/C=C1\C=Cc2ccccc2N1CC | > 16 µM (inactive)
Cc1nnc(NC(=O)c2sc3nc(-c4cccs4)cc(C(F)(F)F)c3c2N)s1 | 9.04 µM
CCCCCn1nc(-c2ccccc2)c2nc3ccccc3nc21 | 8.72 µM
COc1cc(N2CCCC2)c(OC)cc1/C=C(/C#N)c1cccc(F)c1 | > 16 µM (inactive)
Nc1c(C(=O)c2ccccc2)sc2nsc(SCCN3CCCC3)c12 | 8.41 µM
CCN1CC=C2C(C1)C(c1ccc(Cl)s1)C(C#N)=C(N)C2(C#N)C#N (centres undefined) | 8.89 µM
CCCCOc1ccc(-c2cc(C(F)(F)F)c(C#N)c(SCC(=O)O)n2)cc1 | > 16 µM (inactive)
Cc1cccn2c(=O)c(/C=C3\SC(=S)N(CC(C)C)C3=O)c(NCCCOC(C)C)nc12 | > 16 µM (inactive)
CC(=O)Nc1sc(/C(C#N)=C/c2ccc(Cl)c(Cl)c2)nc1-c1ccc(C)cc1 | > 16 µM (inactive)
N#C/C(=C/c1ccc(N2CCOCC2)o1)c1ccc(Br)cc1 | 12.8 µM (inactive)
CCN(CC)c1ccc2cc(-c3nc(-c4ccc(OC)cc4)cs3)c(=O)oc2c1 | < 0.25 µM
COc1ccc(CN2C(=O)/C(=C/c3ccc(-c4ccc(Cl)c(C(=O)O)c4)o3)SC2=S)cc1 | 15.4 µM (inactive)
Cc1c(N=C2N=C(NC(=O)c3cccs3)c3ccccc32)c(=O)n(-c2ccccc2)n1C | 13.9 µM (inactive)
Cc1ccc(CN=Cc2[nH]c3ccc(Br)c(Cl)c3c2O)cc1 | > 16 µM (inactive)
O=c1c(Cl)c2oc3ccccc3nc-2c2ccccc12 | > 16 µM (inactive)
CCN1/C(=C/c2ccc3cc(C)ccc3[n+]2CC)Sc2ccccc21 | 1.1 µM
O=S(=O)([O-])CCC[n+]1c(/C=C\Nc2ccccc2)oc2ccc(-c3ccccc3)cc21 | 3.34 µM
CCCNC(=O)Cn1c(=O)/c(=C\c2ccc(-c3ccc([N+](=O)[O-])cc3)o2)s/c1=C\C(=O)C(C)(C)C | 0.359 µM
Cn1c(=O)c(N)c2c3c(c(Br)ccc31)C(=O)c1ccccc1-2 | 8.88 µM
CCOC(=O)c1sc2cc([N+](=O)[O-])cc(SCC(C)C)c2c1N | > 16 µM (inactive)
CC(C)N1CC=C2C(C#N)=C(N)C(C#N)(C#N)C(c3ccccc3)C2C1 (centres undefined) | 6 µM
C=CCSc1nnc(C)c(/C=C/Nc2ccc(Cl)cc2)n1 | > 16 µM (inactive)
CCN(CC)c1ccc2cc(/C(N)=N/NC(=O)c3cccs3)c(=O)oc2c1 | 13.8 µM (inactive)
CCOC(=O)N1CCN(S(=O)(=O)c2ccc3c(c2)oc(=O)n3C)CC1 | > 16 µM (inactive)

Compound | EC50
CCCCN1C(=O)C2(NNc3ccccc3O2)c2ccccc21 (centres undefined) | > 16 µM (inactive)
CCc1cccc2cc3c(N)c(C(=O)Nc4ccc(S(=O)(=O)N5CCCC5)cc4)sc3nc12 | 10.2 µM (inactive)
O=C(O)c1ccccc1N/N=C/c1c(Sc2nnnn2-c2ccccc2)nc2ccccn2c1=O | 5.97 µM
CCN1CCc2c(sc(NC(=O)Nc3ccc(Cl)c(Cl)c3)c2C(N)=O)C1 | 1.4 µM
O=[N+]([O-])c1ccc(N2N=C(c3ccco3)CC2c2ccccc2)cc1 (centres undefined) | > 16 µM (inactive)
CCCN(CCC)c1ccc(/C=C/c2ccc3cc(OCC)ccc3n2)cc1 | > 16 µM (inactive)
CCN1C(=O)/C(=C/C=C2\N(CC)c3cc(S(=O)(=O)N(C)C)ccc3N2c2ccccc2)SC1=S | 6.67 µM
CN1/C(=C\C=C2/SC(=S)NC2=O)C(C)(C)c2ccccc21 | 9.29 µM
COc1cc([C@@H]2[C@H]3CN(C)CC=C3C(C#N)=C(N)C2(C#N)C#N)cc2c1OCO2 | 8.67 µM
CN1C(=O)C(=Cc2ccc(N3CCCCC3)o2)C(=O)N(C)C1=S | > 16 µM (inactive)
Cn1cc(/C=C2\SC(=S)N(NC(=O)c3ccccc3Cl)C2=O)c2ccccc21 | > 16 µM (inactive)
O=c1[nH]c2ccccc2nc1/C=C/c1ccc(F)cc1 | > 16 µM (inactive)
Nc1c(C(=O)N/N=C/c2cccnc2)oc2nc(-c3ccccc3)cc(-c3ccco3)c12 | > 16 µM (inactive)
O=[N+]([O-])c1ccc(N/N=C/c2sc(N3CCOCC3)nc2-c2ccccc2)c(S(=O)(=O)Nc2ccccc2Cl)c1 | > 16 µM (inactive)
Cc1cc(C)cc(N=Cc2[nH]c3ccc(Br)c(Cl)c3c2O)c1 | 3.42 µM
C/C(=N\Nc1ccc([N+](=O)[O-])cc1)c1cc2ccccc2o1 | > 16 µM (inactive)
COc1cc(OC)c(-c2c3cc(O)c(=O)cc-3oc3cc(O)c(O)cc23)cc1OC | 8.54 µM
N#C/C(=C/c1ccc(-c2ccc(S(N)(=O)=O)cc2)o1)c1nc2ccccc2s1 | 10 µM (inactive)
CC(=O)Oc1ccc2c(c1)Oc1cc(OC(C)=O)ccc1C21OC(=O)c2ccccc21 | 0.439 µM
COCCCNc1c2c3c(cccc3[nH]c1=O)C(=O)c1ccccc1-2 | 4.03 µM
CCN(CC)c1ccc2cc(-c3nnc(-c4ccccc4)o3)c(=O)oc2c1 | 2.88 µM
O=C1S/C(=C/c2ccc(N3CCOCC3)o2)C(=O)N1Cc1ccc(F)cc1 | > 16 µM (inactive)
CN(C)c1ccc(/C=C/C(O)=C2/C(=O)N(C)C3(C)CC2c2ccccc2O3)cc1 (centres undefined) | > 16 µM (inactive)
CN1/C(=C\C=C2/C(=O)Oc3ccccc3C2=O)C(C)(C)c2ccccc21 | 2.58 µM
